Laboratory results published in patent US10640507B2, “PBD antibacterial agents” (KING'S COLLEGE LONDON, priority 2015, dated 2020).
Where two headings read alike, the source gives them in different places.

What was measured:
Format in all cases: cell-based
Settings in all cases: drug at 4×MIC
A. baumannii - AYE = test system: A. baumannii - AYE
Method: (§1) 1. Grow bacteria overnight.
(§2) 2. Subculture into an autoclaved conical flask containing 10 ml of TSB to an OD of 0.01 (˜1×10^7 Cfu/ml for KP-M6).
(§3) 4. Take aliquots (100 μl) at timepoints (0, 1, 2, 4, 6, 24 hours) and carry out a serial dilution in PBS (to remove drug and to dilute bacteria to countable numbers).
(§4) 5. Use the serial dilution to perform a Miles Misra—i.e. Add 3×10 μl spots of each dilution onto an agar plate. Incubate overnight and count colonies on spots in the morning.
(§5) 6. Control: Subculture bacteria alongside samples but with no antibiotic added. Take aliquots from this at every time point (0, 1, 2, 4, 6, 24 hours) and perform Miles Misra on these too (as detailed in points 4 and 5 above).
(§6) 7. After the first experiment, if the counts seen on Miles-Misra were zero, total viable counts were determined by spreading 200 μl in a streak down the centre of a TSB agar plate, waiting for the liquid to be absorbed and then spreading over the plate and checking for growth inhibition at the sight of the original streak.
(§7) 8. The compound is considered bactericidal if the inoculum was reduced >3 log10 CFU/ml and bacteriostatic if inoculum was reduced by 0-3 log10 CFU/ml.
(§8) Three measurements were taken for each compound at each time point. These measurements were averaged and the standard deviation was also calculated.

[1] = test system: K. pneumonia - NCTC 13368
Method: as §1, §2, §3, §4, §5, §6, §7, §8

A. baumannii - NCTC13424 = test system: A. baumannii - NCTC13424
Method: as §1, §2, §3, §4, §5, §6, §7, §8

[2] = test system: K. pneumonia - NCTC 13438
Method: as §1, §2, §3, §4, §5, §6, §7, §8

**Q.** For `O=C(O)c1cn(C2CC2)c2cc(N3CCNCC3)c(F)cc2c1=O` [CIP, ciprofloxacin, reference compound], which Average (CFU/ml) (A. baumannii - AYE; time-point 1 hours) is on record?
**A.** 2e+06 CFU/ml

**Q.** What about the n = 1 (CFU/ml) (A. baumannii - AYE; time-point 1 hours) of the same compound?
**A.** 2.1e+06 CFU/ml

**Q.** And the n = 2 (CFU/ml) (A. baumannii - AYE; time-point 1 hours)?
**A.** 1.9e+06 CFU/ml

**Q.** What about the Average (CFU/ml) (A. baumannii - AYE; time-point 2 hours) of the same compound?
**A.** 900000 CFU/ml

**Q.** What about the n = 1 (CFU/ml) (A. baumannii - AYE; time-point 2 hours) of the same compound?
**A.** 1.2e+06 CFU/ml

**Q.** And the n = 2 (CFU/ml) (A. baumannii - AYE; time-point 2 hours)?
**A.** 600000 CFU/ml

**Q.** What about the Average (CFU/ml) (A. baumannii - AYE; time-point 4 hours) of the same compound?
**A.** 750000 CFU/ml

**Q.** And the n = 1 (CFU/ml) (A. baumannii - AYE; time-point 4 hours)?
**A.** 800000 CFU/ml

**Q.** And the n = 2 (CFU/ml) (A. baumannii - AYE; time-point 4 hours)?
**A.** 700000 CFU/ml

**Q.** And the Average (CFU/ml) (A. baumannii - AYE; time-point 6 hours)?
**A.** 2.1e+06 CFU/ml

**Q.** And the n = 1 (CFU/ml) (A. baumannii - AYE; time-point 6 hours)?
**A.** 2e+06 CFU/ml

**Q.** And the n = 2 (CFU/ml) (A. baumannii - AYE; time-point 6 hours)?
**A.** 2.2e+06 CFU/ml

**Q.** What about the n = 1 (CFU/ml) (A. baumannii - AYE; time-point 24 hours) of the same compound?
**A.** 7e+08 CFU/ml

**Q.** And the n = 2 (CFU/ml) (A. baumannii - AYE; time-point 24 hours)?
**A.** 1.4e+08 CFU/ml

**Q.** And the Average (CFU/ml) ([1]; time-point 1 hours)?
**A.** 2.38e+06 CFU/ml

**Q.** What about the n = 2 (CFU/ml) ([1]; time-point 1 hours) of the same compound?
**A.** 110000 CFU/ml

**Q.** And the n = 3 (CFU/ml) ([1]; time-point 1 hours)?
**A.** 28000 CFU/ml

**Q.** And the viable count ([1]; time-point 1 hours)?
**A.** 7e+06 CFU/mL

**Q.** What about the Average (CFU/ml) ([1]; time-point 2 hours) of the same compound?
**A.** 118000 CFU/ml

**Q.** What about the n = 2 (CFU/ml) ([1]; time-point 2 hours) of the same compound?
**A.** 650 CFU/ml

**Q.** And the n = 3 (CFU/ml) ([1]; time-point 2 hours)?
**A.** 2500 CFU/ml

**Q.** And the viable count ([1]; time-point 2 hours)?
**A.** 350000 CFU/mL

**Q.** What about the Average (CFU/ml) ([1]; time-point 4 hours) of the same compound?
**A.** 75.3 CFU/ml

**Q.** What about the n = 2 (CFU/ml) ([1]; time-point 4 hours) of the same compound?
**A.** 55 CFU/ml

**Q.** And the n = 3 (CFU/ml) ([1]; time-point 4 hours)?
**A.** 170 CFU/ml

**Q.** What about the viable count ([1]; time-point 4 hours) of the same compound?
**A.** 0 CFU/mL

**Q.** And the Average (CFU/ml) ([1]; time-point 6 hours)?
**A.** 65.3 CFU/ml

**Q.** And the n = 2 (CFU/ml) ([1]; time-point 6 hours)?
**A.** 80 CFU/ml

**Q.** And the n = 3 (CFU/ml) ([1]; time-point 6 hours)?
**A.** 115 CFU/ml

**Q.** And the viable count ([1]; time-point 6 hours)?
**A.** 0 CFU/mL

**Q.** And the Average (CFU/ml) ([1]; time-point 24 hours)?
**A.** 0 CFU/ml

**Q.** And the n = 2 (CFU/ml) ([1]; time-point 24 hours)?
**A.** 0 CFU/ml

**Q.** And the n = 3 (CFU/ml) ([1]; time-point 24 hours)?
**A.** 0 CFU/ml

**Q.** And the viable count ([1]; time-point 24 hours)?
**A.** 0 CFU/mL

**Q.** And the Average (CFU/mL) (A. baumannii - NCTC13424; time-point 1 hours)?
**A.** 2.57e+06 CFU/mL

**Q.** What about the n = 1 (CFU/mL) (A. baumannii - NCTC13424; time-point 1 hours) of the same compound?
**A.** 2.5e+06 CFU/mL

**Q.** What about the n = 2 (CFU/ml) (A. baumannii - NCTC13424; time-point 1 hours) of the same compound?
**A.** 2.2e+06 CFU/ml

**Q.** And the n = 3 (CFU/mL) (A. baumannii - NCTC13424; time-point 1 hours)?
**A.** 3e+06 CFU/mL

**Q.** And the Average (CFU/mL) (A. baumannii - NCTC13424; time-point 2 hours)?
**A.** 42000 CFU/mL

**Q.** What about the n = 1 (CFU/mL) (A. baumannii - NCTC13424; time-point 2 hours) of the same compound?
**A.** 80000 CFU/mL

**Q.** And the n = 2 (CFU/ml) (A. baumannii - NCTC13424; time-point 2 hours)?
**A.** 21000 CFU/ml

**Q.** And the n = 3 (CFU/mL) (A. baumannii - NCTC13424; time-point 2 hours)?
**A.** 25000 CFU/mL

**Q.** And the Average (CFU/mL) (A. baumannii - NCTC13424; time-point 4 hours)?
**A.** 7330 CFU/mL

**Q.** And the n = 1 (CFU/mL) (A. baumannii - NCTC13424; time-point 4 hours)?
**A.** 12000 CFU/mL

**Q.** And the n = 2 (CFU/ml) (A. baumannii - NCTC13424; time-point 4 hours)?
**A.** 1000 CFU/ml

**Q.** And the n = 3 (CFU/mL) (A. baumannii - NCTC13424; time-point 4 hours)?
**A.** 9000 CFU/mL

**Q.** And the Average (CFU/mL) (A. baumannii - NCTC13424; time-point 6 hours)?
**A.** 11200 CFU/mL

**Q.** And the n = 1 (CFU/mL) (A. baumannii - NCTC13424; time-point 6 hours)?
**A.** 10000 CFU/mL

**Q.** What about the n = 2 (CFU/ml) (A. baumannii - NCTC13424; time-point 6 hours) of the same compound?
**A.** 14300 CFU/ml

**Q.** And the n = 3 (CFU/mL) (A. baumannii - NCTC13424; time-point 6 hours)?
**A.** 9200 CFU/mL

**Q.** What about the n = 1 (CFU/mL) (A. baumannii - NCTC13424; time-point 24 hours) of the same compound?
**A.** 3.6e+08 CFU/mL

**Q.** What about the n = 2 (CFU/ml) (A. baumannii - NCTC13424; time-point 24 hours) of the same compound?
**A.** 1.9e+09 CFU/ml

**Q.** And the n = 3 (CFU/mL) (A. baumannii - NCTC13424; time-point 24 hours)?
**A.** 2.75e+09 CFU/mL

**Q.** And the n = 1 (CFU/ml) ([2]; time-point 1 hours)?
**A.** 1e+07 CFU/ml

**Q.** And the n = 2 (CFU/ml) ([2]; time-point 1 hours)?
**A.** 9e+06 CFU/ml

**Q.** And the n = 1 (CFU/ml) ([2]; time-point 2 hours)?
**A.** 3.8e+07 CFU/ml

**Q.** And the n = 2 (CFU/ml) ([2]; time-point 2 hours)?
**A.** 3.7e+07 CFU/ml

**Q.** And the “Average (Log CFU/ml)” value ([2]; time-point 4 hours)?
**A.** 1.17E+09 Log CFU/ml

**Q.** What about the n = 1 (CFU/ml) ([2]; time-point 4 hours) of the same compound?
**A.** 1.5e+09 CFU/ml

**Q.** And the n = 2 (CFU/ml) ([2]; time-point 4 hours)?
**A.** 1e+09 CFU/ml

**Q.** What about the “Average (Log CFU/ml)” value ([2]; time-point 6 hours) of the same compound?
**A.** 3.07E+09 Log CFU/ml

**Q.** What about the n = 1 (CFU/ml) ([2]; time-point 6 hours) of the same compound?
**A.** 3.9e+09 CFU/ml

**Q.** What about the n = 2 (CFU/ml) ([2]; time-point 6 hours) of the same compound?
**A.** 2.5e+09 CFU/ml

**Q.** And the “Average (Log CFU/ml)” value ([2]; time-point 24 hours)?
**A.** 6.23E+09 Log CFU/ml

**Q.** What about the n = 1 (CFU/ml) ([2]; time-point 24 hours) of the same compound?
**A.** 6e+09 CFU/ml

**Q.** And the n = 2 (CFU/ml) ([2]; time-point 24 hours)?
**A.** 6.7e+09 CFU/ml
